# Reference: PMC12118722, “Self-assembled peptide-dye nanostructures for in vivo tumor imaging and photodynamic toxicity” (npj Imaging, 2024)
# Columns and labels:
# [1] = tested on: HEK 293T cells; assay: Competitive inhibition flow cytometry with αVβ5 primary antibodies; assay type: cell-based, human
# Description: The peptide formulations were further challenged via competitive inhibition flow cytometry studies to confirm their specific interactions with integrin receptors (Fig. 3b, c). In addition to labeling as before, some cells were pre-incubated with αVβ5 primary antibodies before iRGD-BNPs or iRGD-SNPs. […] There was no observable change in fluorescence from the presence of the antibodies for HEK 293-T cells.
# 300,000 cells were seeded overnight. For the competitive inhibition samples, cell cultures were first treated with αVβ5 mABs ([…]) for 90 min. The cells were then treated with the iRGD-BNPs, iR GD-SNPs, or methylene blue. The cells were detached, collected at 700xG, and the media was decanted while the cells were resuspended in ice cold buffer for flow cytometry using the APC channel.
# [2] = methylene blue reference value used for the relative measurement; no reference given; cited from earlier work
# From the text: The optical and photoacoustic properties of the assemblies were also studied (Fig. 4). When the nanospheres and branched NPs were scanned from 400 to 700 nm for optical absorbance, both adopted a similar peak absorbance to methylene blue at 662 nm. When the peaks were normalized, there was no 614 nm shoulder growth where dimerization typically forms. While the iRGD-BNP maintained methylene blue’s distinct blue color, the iRGD-SNP samples shifted to a slightly greener color. The quantum yield for the branched NPs and the nanospheres relative to methylene blue (52%) were 43% and 31%, respect ...
# [3] = Ex vivo biodistribution by methylene blue fluorescence of harvested organs; conditions: ex vivo IVIS fluorescence after euthanasia
# From the text: The vital organs of the subjects were harvested after euthanasia and analyzed for fluorescence from the methylene blue for biodistribution studies.
# After the subject was euthanized, the heart, lungs, liver, spleen, kidneys, and tumor were harvested and rinsed in PBS. The organs were then imaged for fluorescence signal via IVIS Perkin-Elmer Illumination and LivingImage software.
smiles,measurement,setting,value
CN(C)c1ccc2nc3ccc(=[N+](C)C)cc-3sc2c1 [methylene blue],change in fluorescence with αVβ5 antibody pre-incubation,[1],no change in fluorescence increase
same,quantum yield of reference,[2],52%
same,fluorescence in vital organs,[3],nonspecific and low fluorescence in all of the vital organs
